The values below come from patent US20130273180A1, “SYSTEM AND METHOD FOR IMPROVING OUTCOME OF CEREBRAL ISCHEMIA” (priority 2012, published 2013).

Data set [1] relates to intubated rodents. The data set is described as follows: Cerebral blood flow by cortical laser Doppler during intranasal nitric oxide in intubated rodents. It is filed as in vivo. How it is done: (§1) In intubated rodents, the inventors have shown that cerebral blood flow increases by 100% within 60 minutes of intranasal nitric oxide delivery.
Data set [2] has as its system intubated rodents, carotid artery occlusion model. As to the kind of experiment: Carotid artery occlusion model, Speckle laser Doppler, intubated rodents. It is filed as in vivo. How it is done: as §1
Increase in cerebral blood flow is attributable to focal intranasal or intra-oral effect of nitric oxide rather than to systemic absorption of the gas. […] The effect on cerebral blood flow during intranasal delivery of nitric oxide with concomitant air inhalation into the lungs is therefore a focal effect on intranasal and intracranial vasculature attributable specifically to nitric oxide. […] In a non-intubated patient, nitric oxide inhalation can be prevented by occluding the nasal cavity anterior or posterior to the site of gas delivery. This is achieved by means of an anterior occlusion device such a rigid member, an expandable member, a compressible member, a sponge, a porous member, a plug, a balloon, foam and/or combinations of the foregoing, which prevent inhalation through the nostrils while maintaining a high concentration of nitric oxide in the nasal cavity. A non-intubated patient may be allowed to inhale air into the lungs during nitric oxide delivery into the nasal cavity by an optional central lumen with the distal orifice beyond the sites of nasal gas delivery and occlusion device.

In data set [3] the test system is humans (normal volunteers). The data set is described as follows: Tolerability of intranasal nitric oxide delivery in humans (normal volunteers). It is filed as in vivo, human. The source says: While nitric oxide may be given intranasally and without inhalation into the lungs to intubated, comatose individuals the tolerability of intranasal nitric oxide in awake humans has not previously been investigated. The inventors have tested the effect of nitric oxide in humans (normal volunteers) during intranasal delivery. […] Therefore it can easily be tolerated by awake, non-intubated patients.

The subject of data set [4] is human with focal cerebral ischemia. The data set is described as follows: CT perfusion scanning before and after intranasal nitric oxide in intubated patients with cerebral ischemia. It is filed as in vivo.
[5] abbreviates: Post Rx, one hour of intranasal non-inhaled nitric oxide.

“Also recorded” adds a separate entry of the source.

Take `[N]=O` [nitric oxide]: the “cerebral blood flow (FIG. 8)” value in data set [1] (cortical laser Doppler, during intranasal administration) is recorded as “doubling”. The “cerebral blood flow increase” value in data set [1] (within 60 minutes of intranasal delivery, non-inhaled) was determined as 100%. The “cerebral ischemia (FIG. 9)” value in data set [2] (Speckle laser Doppler tracing, intubated rodents) is recorded as “reduction”. Further, in data set [2] (during the carotid occlusion and following ligature release), the “perfusion in the ischemic hemisphere” value is “improved”. In addition, the “sensation during intranasal delivery” value in data set [3] (concentrations up to 100 PPM, normal volunteers) was “does not elicit any sensation”. Moreover, the “tolerability of gas treatment” value in data set [3] (high concentration, delivered intra-nasally and without inhalation) is listed as “tolerated”. Also, in data set [4] (Post Rx), the “Cerebral Blood Flow, Changes in ACA Watershed” value is reported as “Normalization,” and the “Mean Transit Time, Changes in ACA Watershed” value is recorded as “Normalization”. In data set [4] (Post Rx versus Pre Rx, ischemic left hemisphere), the “increase in perfusion on L (ACA Watershed)” value is given as 67% increase in. Besides, in data set [4] (setting [5]), the “Cerebral Blood Flow, Left Hemisphere (ischemic)” value came out at 52; the “Cerebral Blood Flow, Right Hemisphere (normal)” value stood at 45; the “Mean Transit Time, Left Hemisphere (ischemic)” value worked out at 6.0 s; the “Mean Transit Time, Right Hemisphere (normal)” value was 6.1 s. In data set [4] (before and after treatment, human with focal cerebral ischemia), the “cerebral perfusion on CT perfusion scan” value is “improvement; also recorded: augmentation of cerebral perfusion and normalization of regional perfusion abnormalities”.
